Tested on: systemic testosterone levels
Test: Testosterone stimulation in rats: iron, chitosan and iron chitosan chelate vs placebo
Type: in vivo, Sprague Dawley rats
Details: 8-week old rats, oral 200 μL twice a day for 7 days; 0.12 wt % iron lactate, 1 wt % chitosan or 1 wt % iron chitosan chelate
Procedure: The effects of an iron chitosan chelate, chitosan, and iron on systemic testosterone levels in test groups of 8-week old Sprague Dawley rats is observed and compared to a control group. Each of the groups includes 8 rats. The rats of each group are orally administered a liquid composition twice a day, where group 1 receives a carrier composition in the form of a placebo, group 2 receives the carrier enhanced with 200 μL of 0.12 wt % iron lactate, group 3 receives the carrier enhanced with 200 μL of 1 wt % chitosan having a weight average molecular weight of 19,500 Mw, and group 4 receives the carrier enhanced with 200 μL of 1 wt % iron chitosan chelate (chitosan weight average molecular weight 19,500 Mw). The effects of the iron, chitosan, and iron chitosan chelate in systemic testosterone levels are compared to the systemic testosterone levels of the rats administered with the carrier placebo alone. After 7 days of dosing the 4 rat groups twice per day, the impact of the test groups compared to the control group on the rats testosterone levels is recorded, and is set forth in Table 1.

CC(O)C(=O)[O-].CC(O)C(=O)[O-].[Fe+2] (centres unmarked) [Iron, iron lactate]
% Increase from Placebo: ˜0% | Testosterone Level: 358.1 ± 23.6 (pg/100 μL)

— patent US20050281891A1, “Testosterone stimulant” (Ecobio, Inc., priority 2004, published 2005)
